From patent US20230002367A1, “BIFUNCTIONAL COMPOUNDS” (Hoffmann-La Roche Inc., priority 2019, published 2023) come the findings set out here.

The assay has as its target T1, SMARCA2 (Homo sapiens, UniProt P51531).
T1 construct: endogenous in cells
Description: SMARCA2 HiBiT degradation assay (cellular). Type of assay: cell-based. Particulars: for Emax: A549, Emax = amount of residual protein remaining in the cell following compound treatment; for DC50: SMARCA2 HiBiT cells, luminescence readout, 11-point titration from 10 μM, 6 hours or 16 hours, read-out: HiBit A549 SMARCA2 IP. Background: The HiBiT peptide binds its large partner to form an active luciferase.

T1 sequence (P51531 whole entry): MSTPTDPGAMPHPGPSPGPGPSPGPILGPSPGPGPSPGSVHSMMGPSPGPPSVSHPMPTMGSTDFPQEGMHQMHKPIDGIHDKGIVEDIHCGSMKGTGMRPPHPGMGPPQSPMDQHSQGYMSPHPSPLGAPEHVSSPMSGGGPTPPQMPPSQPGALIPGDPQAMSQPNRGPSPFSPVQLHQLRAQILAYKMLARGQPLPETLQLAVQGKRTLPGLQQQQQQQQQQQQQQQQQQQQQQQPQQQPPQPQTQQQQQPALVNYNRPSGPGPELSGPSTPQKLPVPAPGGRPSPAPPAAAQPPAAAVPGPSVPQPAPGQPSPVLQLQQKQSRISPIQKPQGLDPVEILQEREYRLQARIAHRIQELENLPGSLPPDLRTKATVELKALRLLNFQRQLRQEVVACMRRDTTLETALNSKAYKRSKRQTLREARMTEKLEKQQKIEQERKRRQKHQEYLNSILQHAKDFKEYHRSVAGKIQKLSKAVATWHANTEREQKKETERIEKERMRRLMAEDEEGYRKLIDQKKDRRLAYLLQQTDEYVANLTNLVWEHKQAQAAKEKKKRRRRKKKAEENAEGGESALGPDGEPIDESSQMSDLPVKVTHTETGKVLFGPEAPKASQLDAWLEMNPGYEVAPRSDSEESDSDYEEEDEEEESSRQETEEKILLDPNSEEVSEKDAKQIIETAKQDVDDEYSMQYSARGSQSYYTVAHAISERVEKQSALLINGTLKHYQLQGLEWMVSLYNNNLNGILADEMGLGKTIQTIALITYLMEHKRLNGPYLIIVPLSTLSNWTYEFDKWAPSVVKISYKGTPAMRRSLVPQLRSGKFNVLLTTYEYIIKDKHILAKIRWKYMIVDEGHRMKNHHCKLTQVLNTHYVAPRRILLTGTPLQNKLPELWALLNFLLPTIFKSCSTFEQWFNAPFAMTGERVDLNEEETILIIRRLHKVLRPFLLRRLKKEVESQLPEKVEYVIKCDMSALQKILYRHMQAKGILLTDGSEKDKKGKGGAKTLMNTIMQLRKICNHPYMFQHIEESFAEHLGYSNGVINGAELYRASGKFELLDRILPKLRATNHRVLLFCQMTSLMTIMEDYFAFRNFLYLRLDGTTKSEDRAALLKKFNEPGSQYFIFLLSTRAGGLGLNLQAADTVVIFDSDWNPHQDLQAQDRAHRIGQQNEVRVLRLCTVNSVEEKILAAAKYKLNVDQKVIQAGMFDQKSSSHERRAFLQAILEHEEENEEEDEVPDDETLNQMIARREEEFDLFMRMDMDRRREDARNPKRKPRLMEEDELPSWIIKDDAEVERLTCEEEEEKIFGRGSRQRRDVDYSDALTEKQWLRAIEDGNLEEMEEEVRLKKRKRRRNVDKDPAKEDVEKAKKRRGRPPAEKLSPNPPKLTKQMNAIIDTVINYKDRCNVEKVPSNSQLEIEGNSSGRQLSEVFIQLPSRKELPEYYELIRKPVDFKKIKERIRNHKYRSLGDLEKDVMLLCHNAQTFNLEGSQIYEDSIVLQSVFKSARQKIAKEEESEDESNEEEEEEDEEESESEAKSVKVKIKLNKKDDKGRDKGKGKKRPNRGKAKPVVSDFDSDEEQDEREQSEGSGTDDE

With `Cc1ncsc1-c1ccc([C@H](C)NC(=O)[C@@H]2C[C@@H](O)CN2C(=O)[C@@H](NC(=O)CCC(=O)N2CCN(c3ccc(CN4CCCC(Oc5cc(-c6ccccc6O)nnc5N)C4)cc3)CC2)C(C)(C)C)cc1` (mixture of isomers) [Example 39, rac-(2S,4R)-4-hydroxy-1-[rac-(2S)-2-[[4-[4-[4-[[3-[3-amino-6-(2-hydroxyphenyl)pyridazin-4-yl]oxy-1-piperidyl]methyl]phenyl]piperazin-1-yl]-4-oxo-butanoyl]amino]-3,3-dimethyl-butanoyl]-N-[rac-(1S)-1-[4-(4-methylthiazol-5-yl)phenyl]ethyl]pyrrolidine-2-carboxamide], the maximal response (Emax) (in general, the size of the effect at its maximum, as opposed to the concentration needed) was determined as 48% and the DC50 is 426 nM.
The matching figures for `Cc1ncsc1-c1ccc([C@H](C)NC(=O)[C@@H]2C[C@@H](O)CN2C(=O)[C@@H](NC(=O)CCCCCC(=O)N2CCN(CCOc3cccc(CCOc4cc(-c5ccccc5O)nnc4N)c3)CC2)C(C)(C)C)cc1` [Example 57, (2S,4R)-1-[(2S)-2-[[7-[4-[2-[3-[2-[3-amino-6-(2-hydroxyphenyl)pyridazin-4-yl]oxyethyl]phenoxy]ethyl]piperazin-1-yl]-7-oxo-heptanoyl]amino]-3,3-dimethyl-butanoyl]-4-hydroxy-N-[(1S)-1-[4-(4-methylthiazol-5-yl)phenyl]ethyl]pyrrolidine-2-carboxamide]: 35% and 736 nM.
With `Cc1ncsc1-c1ccc(CNC(=O)[C@@H]2C[C@@H](O)CN2C(=O)[C@@H](NC(=O)CCCCCCCCC(=O)N2CCN(Cc3cccc(CN4C5CCC4CN(c4cc(-c6ccccc6O)nnc4N)C5)c3)CC2)C(C)(C)C)cc1` [Example 29, (2S,4R)-1-[(2S)-2-[[10-[4-[[3-[[3-[3-amino-6-(2-hydroxyphenyl)pyridazin-4-yl]-3,8-diazabicyclo[3.2.1]octan-8-yl]methyl]phenyl]methyl]piperazin-1-yl]-10-oxo-decanoyl]amino]-3,3-dimethyl-butanoyl]-4-hydroxy-N-[[4-(4-methylthiazol-5-yl)phenyl]methyl]pyrrolidine-2-carboxamide], the Emax came to 30% and the DC50 is 1110 nM.
Turning to `Cc1ncsc1-c1ccc(CNC(=O)[C@@H]2C[C@@H](O)CN2C(=O)[C@@H](NC(=O)CCCCCCCCC(=O)N2C3CCCC2CN(c2cc(-c4ccccc4O)nnc2N)C3)C(C)(C)C)cc1` [Example 19, (2S,4R)-1-[(2S)-2-[[10-[3-[3-Amino-6-(2-hydroxyphenyl)pyridazin-4-yl]-3,9-diazabicyclo[3.3.1]nonan-9-yl]-10-oxo-decanoyl]amino]-3,3-dimethyl-butanoyl]-4-hydroxy-N-[[4-(4-methylthiazol-5-yl)phenyl]methyl]pyrrolidine-2-carboxamide], the Emax was 18% and the DC50 was found to be 754 nM.
In the same order, the values of `Cc1ncsc1-c1ccc(CNC(=O)[C@@H]2C[C@@H](O)CN2C(=O)[C@@H](NC(=O)CCCCCCCCC(=O)N2CCN(CCOc3cccc(N4CCOC5(CCN(c6cc(-c7ccccc7O)nnc6N)CC5)C4)c3)CC2)C(C)(C)C)cc1` [Example 52, (2S,4R)-1-[(2S)-2-[[10-[4-[2-[3-[9-[3-amino-6-(2-hydroxyphenyl)pyridazin-4-yl]-1-oxa-4,9-diazaspiro[5.5]undecan-4-yl]phenoxy]ethyl]piperazin-1-yl]-10-oxo-decanoyl]amino]-3,3-dimethyl-butanoyl]-4-hydroxy-N-[[4-(4-methylthiazol-5-yl)phenyl]methyl]pyrrolidine-2-carboxamide] are 56% and 533 nM.
